Assay results reported in ChEMBL document CHEMBL4017496 (J Med Chem, 2017).
The source made the active and inactive calls. The rule behind the calls is not given here.

Experiments:
[1] = target: T1, Peroxisome proliferator-activated receptor gamma (Homo sapiens) (UniProt P37231); experiment: Displacement of Fluormone-Pan-PPAR Green from human GST-tagged PPARgamma LBD at 4 uM by TR-FRET assay relative to control
T1 sequence (whole entry): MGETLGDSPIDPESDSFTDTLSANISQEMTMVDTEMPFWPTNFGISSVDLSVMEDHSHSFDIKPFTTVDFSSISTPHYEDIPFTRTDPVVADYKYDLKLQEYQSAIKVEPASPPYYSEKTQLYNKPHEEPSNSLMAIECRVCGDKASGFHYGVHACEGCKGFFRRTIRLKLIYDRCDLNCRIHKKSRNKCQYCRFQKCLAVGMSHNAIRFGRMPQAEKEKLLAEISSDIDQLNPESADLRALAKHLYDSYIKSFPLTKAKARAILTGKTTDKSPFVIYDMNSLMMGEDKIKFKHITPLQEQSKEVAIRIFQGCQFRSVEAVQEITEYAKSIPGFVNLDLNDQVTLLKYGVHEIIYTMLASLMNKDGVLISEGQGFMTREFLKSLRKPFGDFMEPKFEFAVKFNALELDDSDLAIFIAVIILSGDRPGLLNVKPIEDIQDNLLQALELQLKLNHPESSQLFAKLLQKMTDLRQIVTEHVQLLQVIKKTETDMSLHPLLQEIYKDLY

[2] = target: T2, Peroxisome proliferator-activated receptor delta (Homo sapiens, UniProt Q03181); experiment: Displacement of Fluormone-Pan-PPAR Green from human GST-tagged PPARdelta LBD by TR-FRET assay
T2 sequence (Q03181 whole entry): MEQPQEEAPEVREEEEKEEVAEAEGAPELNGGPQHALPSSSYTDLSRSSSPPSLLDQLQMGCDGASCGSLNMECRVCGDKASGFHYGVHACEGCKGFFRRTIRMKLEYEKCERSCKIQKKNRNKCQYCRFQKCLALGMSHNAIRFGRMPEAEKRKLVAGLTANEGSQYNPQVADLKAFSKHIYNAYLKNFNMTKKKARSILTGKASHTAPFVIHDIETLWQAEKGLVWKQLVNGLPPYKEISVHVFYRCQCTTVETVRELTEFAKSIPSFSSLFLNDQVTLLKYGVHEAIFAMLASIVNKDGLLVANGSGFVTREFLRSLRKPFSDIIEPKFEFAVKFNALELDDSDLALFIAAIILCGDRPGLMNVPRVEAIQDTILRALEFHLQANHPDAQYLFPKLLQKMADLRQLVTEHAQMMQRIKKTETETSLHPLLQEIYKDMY

[3] = target: T3, Oxysterols receptor LXR-alpha (Homo sapiens) (UniProt Q13133); experiment: Binding affinity to human LXRalpha at 4 uM by TR-FRET assay
T3 sequence (whole entry): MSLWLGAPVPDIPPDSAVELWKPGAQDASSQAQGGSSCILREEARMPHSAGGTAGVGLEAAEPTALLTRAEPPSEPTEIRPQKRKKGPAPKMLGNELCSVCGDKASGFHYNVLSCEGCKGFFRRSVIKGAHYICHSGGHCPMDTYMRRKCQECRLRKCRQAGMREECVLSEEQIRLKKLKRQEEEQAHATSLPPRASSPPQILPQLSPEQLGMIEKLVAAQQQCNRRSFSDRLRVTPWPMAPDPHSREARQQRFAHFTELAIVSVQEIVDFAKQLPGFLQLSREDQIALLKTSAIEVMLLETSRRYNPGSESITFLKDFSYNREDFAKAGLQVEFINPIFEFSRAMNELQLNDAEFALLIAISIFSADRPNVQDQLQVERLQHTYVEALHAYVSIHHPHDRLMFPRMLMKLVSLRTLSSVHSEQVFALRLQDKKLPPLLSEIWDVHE

[4] = target: T4, Peroxisome proliferator-activated receptor gamma (Homo sapiens, UniProt P37231); experiment: (§1) Displacement of Fluormone-Pan-PPAR Green from human GST-tagged PPARgamma LBD by TR-FRET assay
T4 sequence (P37231 whole entry): T1 sequence (whole entry)

[5] = target: T1, Peroxisome proliferator-activated receptor gamma (Homo sapiens); experiment: as §1
[6] = target: T5, Peroxisome proliferator-activated receptor alpha (Homo sapiens) (UniProt Q07869); experiment: Displacement of Fluormone-Pan-PPAR Green from human GST-tagged PPARalpha LBD at 20 uM by TR-FRET assay relative to control
T5 sequence (whole entry): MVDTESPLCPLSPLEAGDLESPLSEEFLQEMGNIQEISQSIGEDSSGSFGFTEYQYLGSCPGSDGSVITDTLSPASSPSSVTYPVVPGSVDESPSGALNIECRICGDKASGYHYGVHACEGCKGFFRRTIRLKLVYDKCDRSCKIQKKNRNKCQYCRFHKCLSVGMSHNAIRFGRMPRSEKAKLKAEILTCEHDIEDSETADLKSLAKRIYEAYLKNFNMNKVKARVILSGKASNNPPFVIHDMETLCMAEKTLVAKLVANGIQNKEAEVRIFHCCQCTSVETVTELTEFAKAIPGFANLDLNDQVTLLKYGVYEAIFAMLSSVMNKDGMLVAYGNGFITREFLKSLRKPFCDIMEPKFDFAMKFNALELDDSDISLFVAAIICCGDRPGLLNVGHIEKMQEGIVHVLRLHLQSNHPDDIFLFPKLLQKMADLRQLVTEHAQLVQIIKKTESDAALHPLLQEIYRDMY

[7] = target: T5, Peroxisome proliferator-activated receptor alpha (Homo sapiens); experiment: Displacement of Fluormone-Pan-PPAR Green from human GST-tagged PPARalpha LBD at 4 uM by TR-FRET assay relative to control
[8] = target: T6, Glucocorticoid receptor (Homo sapiens) (UniProt P04150); experiment: Displacement of Fluormone-GS1 from human GST-tagged glucocorticoid receptor LBD at 4 uM by TR-FRET assay
T6 sequence (whole entry): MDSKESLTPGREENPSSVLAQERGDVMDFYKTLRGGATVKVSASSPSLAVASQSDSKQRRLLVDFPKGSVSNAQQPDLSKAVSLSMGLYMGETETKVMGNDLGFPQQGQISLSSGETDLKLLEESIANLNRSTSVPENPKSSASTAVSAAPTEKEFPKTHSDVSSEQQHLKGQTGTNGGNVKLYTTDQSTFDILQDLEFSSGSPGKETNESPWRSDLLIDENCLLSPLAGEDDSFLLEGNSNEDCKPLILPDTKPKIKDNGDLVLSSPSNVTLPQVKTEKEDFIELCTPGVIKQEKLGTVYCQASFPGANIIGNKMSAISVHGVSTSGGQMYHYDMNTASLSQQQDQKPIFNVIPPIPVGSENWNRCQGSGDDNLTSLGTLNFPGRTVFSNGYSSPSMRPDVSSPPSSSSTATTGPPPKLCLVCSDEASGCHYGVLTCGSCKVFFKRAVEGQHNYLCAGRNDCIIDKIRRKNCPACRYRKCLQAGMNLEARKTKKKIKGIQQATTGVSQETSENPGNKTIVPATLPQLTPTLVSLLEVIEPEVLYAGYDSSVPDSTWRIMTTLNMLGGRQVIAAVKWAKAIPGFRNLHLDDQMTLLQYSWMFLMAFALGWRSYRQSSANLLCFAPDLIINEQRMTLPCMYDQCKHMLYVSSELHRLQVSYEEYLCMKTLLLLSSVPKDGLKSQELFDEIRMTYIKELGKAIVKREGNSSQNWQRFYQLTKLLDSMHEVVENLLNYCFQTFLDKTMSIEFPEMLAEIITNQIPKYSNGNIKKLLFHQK

[9] = Induction of adipogenesis in human bone marrow-derived mesenchymal stem cells assessed as adiponectin level at 20 uM measured on day 7 after 48 hrs by ELISA; assay type: functional, Mesenchymal stem cell
[10] = Induction of adipogenesis in human bone marrow-derived mesenchymal stem cells assessed as adiponectin level at 4 uM measured on day 7 after 48 hrs by ELISA; assay type: functional, Mesenchymal stem cell
[11] = target: T7, Oxysterols receptor LXR-beta (Homo sapiens) (UniProt P55055); experiment: Binding affinity to human LXRbeta at 4 uM by TR-FRET assay
T7 sequence (whole entry): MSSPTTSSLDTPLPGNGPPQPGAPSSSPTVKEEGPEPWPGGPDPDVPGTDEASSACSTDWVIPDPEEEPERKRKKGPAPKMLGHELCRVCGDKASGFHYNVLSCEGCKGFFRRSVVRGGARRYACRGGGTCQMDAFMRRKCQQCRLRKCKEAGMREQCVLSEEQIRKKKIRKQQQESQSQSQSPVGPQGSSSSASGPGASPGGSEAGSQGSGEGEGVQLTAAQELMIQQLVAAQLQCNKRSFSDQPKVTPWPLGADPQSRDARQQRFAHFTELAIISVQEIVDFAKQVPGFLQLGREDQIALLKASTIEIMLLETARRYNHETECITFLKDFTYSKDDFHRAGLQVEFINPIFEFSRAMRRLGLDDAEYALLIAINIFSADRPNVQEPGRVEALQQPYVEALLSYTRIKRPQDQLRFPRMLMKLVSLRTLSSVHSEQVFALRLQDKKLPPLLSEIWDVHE

[12] = target: T8, Peroxisome proliferator-activated receptor delta (Homo sapiens) (UniProt Q03181); experiment: Displacement of Fluormone-Pan-PPAR Green from human GST-tagged PPARdelta LBD at 4 uM by TR-FRET assay relative to control
T8 sequence (whole entry): T2 sequence (Q03181 whole entry)

Mesenchymal stem cell [13] = experiment: Inhibition of adipogenesis in human bone marrow-derived mesenchymal stem cells at 1 mM after 7 days in presence of IDX; assay type: functional, cell-based
Mesenchymal stem cell [14] = experiment: Inhibition of adipogenesis in human bone marrow-derived mesenchymal stem cells assessed as decrease in number and size of lipid droplets at 1 mM after 7 days in presence of IDX by oil red O staining based inverted microscopic method; assay type: functional

| Structure (SMILES) | inhibition [1] [%] | Ki [2] [nM] | Activity [3] | Ki [4] [nM] | inhibition [5] | inhibition [6] [%] | inhibition [7] | inhibition [8] | Activity [9] [pg/mL] | Activity [10] [pg/mL] | Activity [11] | inhibition [12] [%] | inhibition (Mesenchymal stem cell [13]) | inhibition (Mesenchymal stem cell [14]) |
| --- | --- | --- | --- | --- | --- | --- | --- | --- | --- | --- | --- | --- | --- | --- |
| CNC(=O)[C@H]1O[C@@H](n2cnc3c(NCc4cccc(I)c4)nc(Cl)nc32)[C@H](O)[C@@H]1O [NAMODENOSON] | 59 | 430 | inactive | 2180 | Dose-dependent effect | 46.5 | inactive | inactive | 603 | 221 | inactive | 75 | – | – |
| Cn1c(=O)c2c(ncn2C)n(C)c1=O | – | – | – | – | – | – | – | – | – | – | – | – | Active | Active |
